How the values were obtained:
Assay in all cases: In Vitro Test of Activities of Jak1, Jak2, Jak3, Tyk2 Kinases
[1] = biological target: Non-receptor tyrosine-protein kinase TYK2 (Homo sapiens, UniProt P29597)
[2] = biological target: Tyrosine-protein kinase JAK1 (Homo sapiens, UniProt P23458)
[3] = biological target: Tyrosine-protein kinase JAK2 (Homo sapiens, UniProt O60674)
[4] = biological target: T1, Tyrosine-protein kinase JAK3 (Homo sapiens, UniProt P52333)
T1 sequence (P52333 whole entry): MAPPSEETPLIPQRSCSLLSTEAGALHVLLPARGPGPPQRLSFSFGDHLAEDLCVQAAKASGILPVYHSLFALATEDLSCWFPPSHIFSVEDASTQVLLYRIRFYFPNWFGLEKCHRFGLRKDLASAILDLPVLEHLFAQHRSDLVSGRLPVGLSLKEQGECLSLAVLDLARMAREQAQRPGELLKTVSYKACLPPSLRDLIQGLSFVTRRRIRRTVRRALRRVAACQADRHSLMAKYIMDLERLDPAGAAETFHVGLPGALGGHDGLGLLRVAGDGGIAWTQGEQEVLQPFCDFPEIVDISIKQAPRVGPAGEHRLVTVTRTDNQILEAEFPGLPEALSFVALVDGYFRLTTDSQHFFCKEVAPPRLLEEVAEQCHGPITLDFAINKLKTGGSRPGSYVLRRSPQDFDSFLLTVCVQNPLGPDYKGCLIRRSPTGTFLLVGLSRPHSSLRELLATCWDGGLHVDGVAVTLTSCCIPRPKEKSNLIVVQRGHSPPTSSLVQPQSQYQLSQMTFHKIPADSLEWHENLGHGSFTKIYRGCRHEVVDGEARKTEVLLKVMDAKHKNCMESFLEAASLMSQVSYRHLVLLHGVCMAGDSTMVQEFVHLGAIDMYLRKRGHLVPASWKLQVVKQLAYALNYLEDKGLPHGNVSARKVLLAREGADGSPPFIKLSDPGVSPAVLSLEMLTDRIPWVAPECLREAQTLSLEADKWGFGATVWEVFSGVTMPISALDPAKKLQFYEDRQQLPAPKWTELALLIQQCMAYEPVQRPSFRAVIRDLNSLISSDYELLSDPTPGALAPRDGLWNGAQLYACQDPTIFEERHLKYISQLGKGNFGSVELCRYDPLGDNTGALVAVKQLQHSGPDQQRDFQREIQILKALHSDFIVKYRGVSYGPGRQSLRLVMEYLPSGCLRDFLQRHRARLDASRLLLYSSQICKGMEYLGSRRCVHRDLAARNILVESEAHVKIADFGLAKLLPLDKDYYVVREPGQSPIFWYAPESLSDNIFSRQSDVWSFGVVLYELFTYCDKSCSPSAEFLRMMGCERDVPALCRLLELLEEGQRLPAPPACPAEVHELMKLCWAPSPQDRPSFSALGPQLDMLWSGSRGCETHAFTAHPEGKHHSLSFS

Sequence of Tyrosine-protein kinase JAK2 (O60674 whole entry): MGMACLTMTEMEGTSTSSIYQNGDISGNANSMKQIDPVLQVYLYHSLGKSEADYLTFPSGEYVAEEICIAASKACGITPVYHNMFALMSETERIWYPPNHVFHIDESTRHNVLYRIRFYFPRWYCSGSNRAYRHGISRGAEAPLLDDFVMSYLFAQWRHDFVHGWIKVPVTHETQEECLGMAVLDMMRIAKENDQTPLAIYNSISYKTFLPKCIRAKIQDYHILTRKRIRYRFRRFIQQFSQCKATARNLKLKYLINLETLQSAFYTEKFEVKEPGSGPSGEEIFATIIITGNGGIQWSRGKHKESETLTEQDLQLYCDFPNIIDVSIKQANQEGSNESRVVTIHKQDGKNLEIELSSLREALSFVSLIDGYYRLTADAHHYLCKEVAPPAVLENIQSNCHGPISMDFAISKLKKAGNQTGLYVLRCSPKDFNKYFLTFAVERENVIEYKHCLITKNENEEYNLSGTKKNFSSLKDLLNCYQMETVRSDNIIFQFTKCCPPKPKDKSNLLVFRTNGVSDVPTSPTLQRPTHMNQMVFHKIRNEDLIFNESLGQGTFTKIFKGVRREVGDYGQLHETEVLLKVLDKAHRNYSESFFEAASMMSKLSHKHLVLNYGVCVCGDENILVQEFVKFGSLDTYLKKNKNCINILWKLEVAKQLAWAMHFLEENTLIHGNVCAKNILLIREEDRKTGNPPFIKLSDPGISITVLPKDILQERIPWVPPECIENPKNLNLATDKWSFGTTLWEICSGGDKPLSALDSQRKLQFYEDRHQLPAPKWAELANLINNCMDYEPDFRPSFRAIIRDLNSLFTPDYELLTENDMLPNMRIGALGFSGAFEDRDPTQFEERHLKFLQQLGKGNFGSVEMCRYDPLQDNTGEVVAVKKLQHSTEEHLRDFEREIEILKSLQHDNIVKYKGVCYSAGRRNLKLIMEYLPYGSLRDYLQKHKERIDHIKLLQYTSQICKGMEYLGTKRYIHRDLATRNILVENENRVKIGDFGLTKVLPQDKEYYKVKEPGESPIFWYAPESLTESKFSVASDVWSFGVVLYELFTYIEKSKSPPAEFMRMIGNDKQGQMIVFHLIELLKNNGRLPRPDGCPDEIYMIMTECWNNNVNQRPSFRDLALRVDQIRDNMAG
Sequence of Non-receptor tyrosine-protein kinase TYK2 (P29597 whole entry): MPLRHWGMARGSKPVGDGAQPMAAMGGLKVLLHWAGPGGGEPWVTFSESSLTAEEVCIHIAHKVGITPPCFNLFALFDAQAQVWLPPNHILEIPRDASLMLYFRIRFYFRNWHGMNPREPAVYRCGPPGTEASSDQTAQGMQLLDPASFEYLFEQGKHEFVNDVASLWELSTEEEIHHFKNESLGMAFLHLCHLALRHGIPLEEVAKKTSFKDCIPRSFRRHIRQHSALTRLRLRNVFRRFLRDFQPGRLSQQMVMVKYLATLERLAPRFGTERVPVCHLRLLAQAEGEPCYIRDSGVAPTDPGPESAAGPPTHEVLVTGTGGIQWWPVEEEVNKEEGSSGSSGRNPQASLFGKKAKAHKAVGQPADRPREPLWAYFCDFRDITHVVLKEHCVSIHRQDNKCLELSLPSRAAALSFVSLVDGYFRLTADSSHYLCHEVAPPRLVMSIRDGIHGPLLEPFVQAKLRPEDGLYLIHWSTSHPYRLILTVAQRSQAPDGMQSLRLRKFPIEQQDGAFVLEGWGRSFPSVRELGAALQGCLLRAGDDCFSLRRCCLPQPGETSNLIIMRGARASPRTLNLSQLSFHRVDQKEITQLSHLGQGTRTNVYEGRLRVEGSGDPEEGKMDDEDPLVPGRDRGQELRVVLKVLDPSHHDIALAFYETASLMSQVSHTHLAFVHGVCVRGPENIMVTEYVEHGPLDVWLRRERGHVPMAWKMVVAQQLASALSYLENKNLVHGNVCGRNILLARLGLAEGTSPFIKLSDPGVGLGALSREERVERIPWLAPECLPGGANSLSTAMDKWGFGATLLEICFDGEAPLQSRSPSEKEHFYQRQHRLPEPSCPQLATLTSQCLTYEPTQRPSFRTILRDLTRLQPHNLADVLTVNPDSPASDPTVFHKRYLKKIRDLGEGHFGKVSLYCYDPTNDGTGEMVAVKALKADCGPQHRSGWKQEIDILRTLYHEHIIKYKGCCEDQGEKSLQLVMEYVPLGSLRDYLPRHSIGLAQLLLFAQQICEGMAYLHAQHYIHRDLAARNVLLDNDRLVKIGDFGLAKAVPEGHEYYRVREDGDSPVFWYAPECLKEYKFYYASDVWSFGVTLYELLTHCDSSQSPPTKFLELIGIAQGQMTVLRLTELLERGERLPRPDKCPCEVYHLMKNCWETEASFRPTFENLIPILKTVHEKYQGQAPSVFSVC
Sequence of Tyrosine-protein kinase JAK1 (P23458 whole entry): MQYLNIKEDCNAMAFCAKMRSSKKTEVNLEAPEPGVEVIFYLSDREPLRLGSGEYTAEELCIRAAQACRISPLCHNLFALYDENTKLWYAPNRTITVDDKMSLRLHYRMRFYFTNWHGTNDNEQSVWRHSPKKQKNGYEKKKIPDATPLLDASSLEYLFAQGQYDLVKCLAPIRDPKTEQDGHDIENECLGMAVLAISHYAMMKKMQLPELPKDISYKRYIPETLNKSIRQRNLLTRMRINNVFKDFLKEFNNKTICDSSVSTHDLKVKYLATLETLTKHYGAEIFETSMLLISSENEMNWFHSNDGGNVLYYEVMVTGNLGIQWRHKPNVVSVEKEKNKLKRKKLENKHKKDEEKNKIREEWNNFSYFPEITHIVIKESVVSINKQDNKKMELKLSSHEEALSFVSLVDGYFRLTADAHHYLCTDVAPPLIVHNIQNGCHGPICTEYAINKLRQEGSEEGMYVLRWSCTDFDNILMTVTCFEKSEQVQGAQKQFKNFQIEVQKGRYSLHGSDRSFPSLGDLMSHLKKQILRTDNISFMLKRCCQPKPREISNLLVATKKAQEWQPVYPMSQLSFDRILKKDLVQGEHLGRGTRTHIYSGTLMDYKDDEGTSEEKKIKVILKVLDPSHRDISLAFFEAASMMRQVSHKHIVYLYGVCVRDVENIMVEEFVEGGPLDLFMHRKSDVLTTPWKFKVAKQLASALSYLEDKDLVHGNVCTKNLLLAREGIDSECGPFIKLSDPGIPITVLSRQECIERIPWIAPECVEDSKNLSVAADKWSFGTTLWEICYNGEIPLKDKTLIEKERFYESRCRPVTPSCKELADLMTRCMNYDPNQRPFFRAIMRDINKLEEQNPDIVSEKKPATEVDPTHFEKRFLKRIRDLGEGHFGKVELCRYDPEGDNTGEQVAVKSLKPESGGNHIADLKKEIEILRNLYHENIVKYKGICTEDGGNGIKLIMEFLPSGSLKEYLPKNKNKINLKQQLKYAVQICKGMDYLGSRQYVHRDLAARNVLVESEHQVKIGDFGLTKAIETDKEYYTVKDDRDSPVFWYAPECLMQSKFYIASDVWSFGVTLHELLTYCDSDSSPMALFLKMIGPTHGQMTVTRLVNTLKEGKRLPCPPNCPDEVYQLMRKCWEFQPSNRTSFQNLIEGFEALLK

Compound	IC50 [1] [nM]	IC50 [2] [nM]	IC50 [3] [nM]	IC50 [4] [nM]
O=C(Nc1nc2cccc(C3(F)CCC4(CC3)CN(C(=O)CC(F)(F)F)C4)n2n1)C1CC1 [US11919896, Compound 4-7]	194	436	7690	> 10000
O=C(Nc1nc2cccc(C3(F)CCC4(CC3)CN(C(=O)CC(F)F)C4)n2n1)C1CC1 [US11919896, Compound 4-8]	> 10000	244	3710	364
N#CCC(=O)N1CC2(CCC(c3cccc4nc(NC(=O)[C@H]5CC5(F)F)nn34)CC2)C1 [US11919896, Compound 8-8]	109	60	1380	> 10000
N#CCC(=O)N1CC2(CCC(c3cccc4nc(NC(=O)C5CC5(F)F)nn34)CC2)C1 (stereo not drawn) [US11919896, Compound 9-5]	175	224	624	

Results, then the compound that gave them:

IC50 [1] [nM]	IC50 [2] [nM]	IC50 [3] [nM]	IC50 [4] [nM]	Compound
1030	63	5460	> 10000	O=C(Nc1nc2cccc(C3CCC4(CC3)CN(C(=O)C3(F)CC3)C4)n2n1)[C@H]1CC1(F)F [US11919896, Compound 8-7]
1190	253	982	> 10000	O=C(Nc1nc2cccc(C3CCC4(CC3)CN(C(=O)C3(F)CC3)C4)n2n1)[C@@H]1CC1(F)F [US11919896, Compound 9-4]

From BindingDB's records for patent US11919896 (Zhuhai United Laboratories Co., 2024)
